*1 amine or outer side, *2 acyl side, *3 side chain or, on linkers, in order; H or OH if unused. Where a SMILES comes first, the peptide text is derived from it. Bridges are numbered along the chain shown (N, C = ends). [ ]: non-standard residue; d: D form. Abu(4-yl) = O=C([C@H](CC[*:3])N[*:1])[*:2]; 2Nal = N[C@@H](Cc1ccc2ccccc2c1)C(=O)O; AEF = NCCOc1ccc(C[C@H](N)C(=O)O)cc1; αMeL = CC(C)C[C@](C)(N)C(=O)O
Columns and labels:
Interleukin-23 receptor [1] = molecular target: T1, Interleukin-23 receptor (Homo sapiens, UniProt Q5VWK5); assay: Inhibition of interleukin-23 receptor in human DB cells assessed as reduction in IL-23-stimulated STAT3 phosphorylation incubated for 30 mins by HTRF assay; assay type: cell-based
T1 sequence (Q5VWK5 whole entry): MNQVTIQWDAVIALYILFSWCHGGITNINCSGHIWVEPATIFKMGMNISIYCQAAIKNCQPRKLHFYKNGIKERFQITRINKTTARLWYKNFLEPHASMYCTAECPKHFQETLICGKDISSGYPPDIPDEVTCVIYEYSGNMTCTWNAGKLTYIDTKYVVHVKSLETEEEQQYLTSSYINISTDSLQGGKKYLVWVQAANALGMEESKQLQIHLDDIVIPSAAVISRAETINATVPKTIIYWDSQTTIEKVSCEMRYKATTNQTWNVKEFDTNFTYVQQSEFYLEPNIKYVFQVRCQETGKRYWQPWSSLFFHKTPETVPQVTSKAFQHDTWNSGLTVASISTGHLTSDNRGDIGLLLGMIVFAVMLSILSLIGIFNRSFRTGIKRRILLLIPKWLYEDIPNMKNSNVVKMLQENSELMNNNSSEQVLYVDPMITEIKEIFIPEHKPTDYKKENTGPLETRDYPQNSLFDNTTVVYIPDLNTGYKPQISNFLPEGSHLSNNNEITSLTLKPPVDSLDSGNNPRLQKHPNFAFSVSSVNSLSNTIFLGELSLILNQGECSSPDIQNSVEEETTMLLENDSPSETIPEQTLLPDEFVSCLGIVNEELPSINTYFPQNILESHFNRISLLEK

Interleukin-23 receptor [2] = molecular target: T1, Interleukin-23 receptor; assay: Inhibition of interleukin-23 receptor in human natural killer cells assessed as reduction in IL23/IL18-induced IFNgamma production incubated for 20 to 24 hrs by ELISA; assay type: cell-based
Interleukin-23 receptor [3] = molecular target: T1, Interleukin-23 receptor; assay: Inhibition of interleukin-23 binding to human interleukin-23 receptor incubated for 2 hrs by competitive binding ELISA
[4] = Inhibition of interleukin-23 binding to rat interleukin-23 receptor incubated for 2 hrs by competitive binding ELISA
[5] = Half life in simulated gastric fluid at 20 uM by LC-MS/MS analysis; assay type: ADME
[6] = Half life in simulated intestinal fluid at 20 uM by LC-MS/MS analysis; assay type: ADME

In the case of COc1ccc(C[C@H](NC(=O)[C@@H](NC(=O)[C@H](CCC(N)=O)NC(=O)[C@H](Cc2c[nH]c3ccccc23)NC(=O)[C@@H](NC(=O)[C@H](CCC(N)=O)NC(=O)[C@@H](NC(C)=O)C(C)(C)S)[C@@H](C)O)C(C)(C)S)C(=O)N[C@@H](Cc2ccc3ccccc3c2)C(=O)N[C@@](C)(CCCCN)C(=O)N[C@@H](CCCCNC(C)=O)C(=O)N[C@@H](CC(N)=O)C(=O)N[C@@H](CC(N)=O)C(N)=O)cc1, the IC50 (Interleukin-23 receptor [1]) is reported as under 0.01 µM and the IC50 (Interleukin-23 receptor [2]) is reported as under 0.01 µM.

In the case of COc1ccc(C[C@H](NC(=O)[C@@H](NC(=O)[C@H](CCC(N)=O)NC(=O)[C@H](Cc2c[nH]c3ccccc23)NC(=O)[C@@H](NC(=O)[C@H](CC(N)=O)NC(=O)[C@@H](NC(=O)[C@@H](Cc2ccccc2)NC(C)=O)C(C)(C)S)[C@@H](C)O)C(C)(C)S)C(=O)N[C@@H](Cc2ccc3ccccc3c2)C(=O)NC2(C(=O)N[C@@H](CCCNC(N)=O)C(=O)N[C@@H](CC(N)=O)C(=O)N[C@@H](CC(N)=O)C(N)=O)CCCCC2)cc1, the IC50 (Interleukin-23 receptor [2]) is reported as under 0.01 µM.

CC(=O)N[C@H]1CCSC[C@@H](C(=O)N[C@@H](Cc2ccc(OCCN)cc2)C(=O)N[C@@H](Cc2ccc3ccccc3c2)C(=O)N[C@@](C)(CCCCN)C(=O)N[C@@H](CCC(=O)O)C(=O)N[C@@H](CC(N)=O)C(=O)NCC(N)=O)NC(=O)[C@H](CCC(N)=O)NC(=O)[C@H](Cc2c[nH]c3ccccc23)NC(=O)[C@H]([C@@H](C)O)NC(=O)[C@H](CCC(N)=O)NC1=O gave an IC50 (Interleukin-23 receptor [3]) of under 0.01 µM, an IC50 (Interleukin-23 receptor [1]) of under 0.01 µM and an IC50 [4] of under 0.01 µM. The half-life at 20 µM [5] was over 6 h and the half-life at 20 µM [6] was over 6 h.

Compound CC(=O)N[C@@H](CCC(=O)O)C(=O)N[C@H]1CCSC[C@@H](C(=O)N[C@@H](Cc2ccc(OCCN)cc2)C(=O)N[C@@H](Cc2ccc3ccccc3c2)C(=O)N[C@@](C)(CCCCN)C(=O)N[C@@H](CCC(=O)O)C(=O)N[C@@H](CC(N)=O)C(=O)N[C@@H](CC(N)=O)C(N)=O)NC(=O)[C@H](CCC(N)=O)NC(=O)[C@H](Cc2c[nH]c3ccccc23)NC(=O)[C@H]([C@@H](C)O)NC(=O)[C@H](CCC(N)=O)NC1=O has an IC50 (Interleukin-23 receptor [3]) of under 0.01 µM, an IC50 (Interleukin-23 receptor [1]) of under 0.01 µM and an IC50 [4] of under 0.01 µM. The half-life at 20 µM [5] was 2 to 3 h and the half-life at 20 µM [6] was over 6 h.

In the case of COc1ccc(C[C@H](NC(=O)[C@H]2NC(=O)[C@H](CCC(N)=O)NC(=O)[C@H](Cc3c[nH]c4ccccc34)NC(=O)[C@H]([C@@H](C)O)NC(=O)[C@H](CCC(N)=O)NC(=O)[C@@H](NC(C)=O)CCSC2(C)C)C(=O)N[C@@H](Cc2ccc3ccccc3c2)C(=O)N[C@@](C)(CCCCN)C(=O)N[C@@H](CCCCNC(C)=O)C(=O)N[C@@H](CC(N)=O)C(=O)NCC(N)=O)cc1, the IC50 (Interleukin-23 receptor [3]) is reported as 0.025 to 0.1 µM, the IC50 (Interleukin-23 receptor [1]) is reported as 0.025 to 0.1 µM and the IC50 [4] is reported as 0.1 to 1 µM. The half-life at 20 µM [5] was 2 to 3 h and the half-life at 20 µM [6] was 3 to 6 h.

With COc1ccc(C[C@H](NC(=O)[C@@H]2CSCC[C@H](NC(C)=O)C(=O)N[C@@H](CCC(N)=O)C(=O)N[C@@H]([C@@H](C)O)C(=O)N[C@@H](Cc3c[nH]c4ccccc34)C(=O)N[C@@H](CCC(N)=O)C(=O)N2)C(=O)N[C@@H](Cc2cccc3ccccc23)C(=O)N[C@@](C)(CCCCN)C(=O)N[C@@H](CCCCNC(C)=O)C(=O)N[C@@H](CC(N)=O)C(=O)NCC(N)=O)cc1 the IC50 (Interleukin-23 receptor [3]) was 0.025 to 0.1 µM, the IC50 (Interleukin-23 receptor [1]) was 0.01 to 0.025 µM and the IC50 [4] was 0.025 to 0.1 µM. The half-life at 20 µM [5] was under 1 h and the half-life at 20 µM [6] was over 6 h.

Work on COc1ccc(C[C@H](NC(=O)[C@@H](NC(=O)[C@H](CCC(N)=O)NC(=O)[C@H](Cc2c[nH]c3ccccc23)NC(=O)[C@@H](NC(=O)[C@H](CC(N)=O)NC(=O)[C@@H](NC(=O)[C@@H](Cc2ccccc2)NC(C)=O)C(C)(C)S)[C@@H](C)O)C(C)(C)S)C(=O)N[C@@H](Cc2ccc3ccccc3c2)C(=O)NC2(C(=O)N[C@@H](CCCNC(N)=O)C(=O)N[C@@H](CC(N)=O)C(=O)N[C@@H](CC(N)=O)C(N)=O)CCOCC2)cc1 yielded an IC50 (Interleukin-23 receptor [2]) of under 0.01 µM.

For CC(=O)NCCCC[C@H](NC(=O)[C@](C)(CC(C)C)NC(=O)[C@H](Cc1ccc2ccccc2c1)NC(=O)[C@H](Cc1ccc(OCCN)cc1)NC(=O)[C@@H]1CSCC[C@H](NC(C)=O)C(=O)N[C@@H](CCC(N)=O)C(=O)N[C@@H]([C@@H](C)O)C(=O)N[C@@H](Cc2c[nH]c3ccccc23)C(=O)N[C@@H](CCC(N)=O)C(=O)N1)C(=O)N[C@@H](CC(N)=O)C(=O)N[C@@H](CC(N)=O)C(N)=O (Ac-[Abu(4-yl)]QTWQC[AEF][2Nal][αMeL]K(Ac)NN-NH2; thioether 1-6), the IC50 (Interleukin-23 receptor [3]) was under 0.01 µM, the IC50 (Interleukin-23 receptor [1]) was under 0.01 µM and the IC50 [4] was under 0.01 µM. The half-life at 20 µM [5] was under 1 h and the half-life at 20 µM [6] was 2 to 3 h.

Source: ChEMBL document CHEMBL4417631, “Oral peptide inhibitors of interleukin-23 receptor and their use to treat inflammatory bowel diseases” (2017)
